Assay [1] deals with Spleen cells from BDF1 female mice. The experiment in a line: Mitogenesis Assay for Immunosuppressive Activity (concanavalin A, 3H-thymidine). The assay is classed as cell-based. The settings on record: BDF1 mouse spleen cells, Concanavalin A 5 μg/ml, 72 hours, 3H-thimidine last 18 hours. As for the experimental part: (§1) Mitogenesis Assay for Immunosuppressive Activity
Spleen cells from BDF1 female mice were established in RPMI with 10% fetal calf serum at 5×10^6 /mL. One hundred […] of this suspension (5×10^5 cells) were dispensed into 96-well round-bottomed microtiter plates (Linbro, Flow Laboratories). Concanavalin A (5 μg/ml)was added as the mitogenic stimulus, and the final volume in the microtiter wells was adjusted to 200 μL with RPMI. Cell cultures were incubated for 72 hours at 37° C. in a 5% CO2 atmosphere and pulsed with 0.5 μCi ^3 H-thymidine (specific activity […]) for the last 18 hours of the 72 hour culture. The cells were harvested on an automated multiple sample harvester and cell-associated radioactivity counted in a Beckman liquid scintillation counter. The results are expressed as the mean values derived from quadruplicate measurements. Cell viability was determined by trypan blue exclusion after 72 hours of incubation. Compounds to be tested were added to the microtiter plates at the appropriate dilutions prior to the addition of cells.

The subject of a further assay is Saccharomyces cerevisiae. As to the kind of experiment: Assay for Antifungal Activity (zones of inhibition on agar). In kind it is cell-based. The settings on record: YPD agar wells, 48 hours. As for the experimental part: Assay for Antifungal Activity
Yeast organism (Saccharomyces cerevisiae) in logarithmic growth were plated on complete agar medium (YPD). Compounds dissolved in an appropriate aqueous or organic solvent were placed in wells punched in the agar. Plates were incubated for 48 hours and zones of inhibition were measured.
as §1

Consider three compounds from patent US5661156A, “Rapamycin derivatives” (SmithKline Beecham Corporation, priority 1995, dated 1997).

As to `CO[C@H]1CCC[C@@H](C[C@@H](C)[C@@H]2CC(=O)[C@H](C)/C=C(\C)[C@@H](O)[C@@H](OC)C(=O)[C@H](C)C[C@H](C)/C=C/C=C/C=C(\C)[C@@H](OC)C[C@@H]3CC[C@@H](C)[C@@](O)(O3)C(=O)C(=O)N3CCCC[C@H]3C(=O)O2)C1` [Example 1, 43-Deshydroxyrapamycin], the concentration for half-maximal inhibition (IC50) (in general, the concentration that inhibits the measured activity by half) in assay [1] was 0.5 nM. In other words, the sub-nanomolar range.
As to `CO[C@H]1C[C@@H]2CC[C@@H](C)[C@](O)(CC(=O)N3CCCC[C@H]3C(=O)O[C@H]([C@H](C)C[C@@H]3CC[C@@H](O)[C@H](OC)C3)CC(=O)[C@H](C)/C=C(\C)[C@@H](O)[C@@H](OC)C(=O)[C@H](C)C[C@H](C)/C=C/C=C/C=C/1C)O2` [Example 3, 14-Deoxorapamycin], the IC50 in assay [1] was found to be 15 nM.
In assay [1], 14-Desoxo-13-Methoxy-Rapamycin came in with a concentration for half-maximal inhibition (IC50) of 1000 nM. Also, the “Yeast IC12” value with Saccharomyces cerevisiae stood at 52 ng/mL.
